Type in all cases: binding
Common to all, as to design: KINOMEscan: ABL1(F317L)-phosphorylated / KINOMEscan: ABL1(H396P)-nonphosphorylated / KINOMEscan: ABL1(H396P)-phosphorylated / KINOMEscan: ABL1(M351T)-phosphorylated / KINOMEscan: ABL1(T315I)-phosphorylated / KINOMEscan: ABL1-nonphosphorylated / KINOMEscan: ABL1-phosphorylated / KINOMEscan: ACVR2A / KINOMEscan: ACVR2B / KINOMEscan: ADCK3 / KINOMEscan: ADCK4 / KINOMEscan: AKT1 / KINOMEscan: AKT3 / KINOMEscan: ALK / KINOMEscan: ARK5 / KINOMEscan: AURKA / KINOMEscan: AURKC / KINOMEscan: BIKE / KINOMEscan: BMPR1A / KINOMEscan: BMPR1B / KINOMEscan: BMX / KINOMEscan: BRK / KINOMEscan: BRSK1 / KINOMEscan: BRSK2 / KINOMEscan: CAMK1 / KINOMEscan: CAMK1D / KINOMEscan: CAMK1G / KINOMEscan: CAMK2A / KINOMEscan: CAMK2B / KINOMEscan: AAK1 / KINOMEscan: CAMK2D / KINOMEscan: CAMK2G / KINOMEscan: ABL1(F317I)-nonphosphorylated / KINOMEscan: ABL1(F317I)-phosphorylated / KINOMEscan: ABL1(F317L)-nonphosphorylated: unit: % Ctrl
Conditions in all cases: Compound Concentration 10 µM

Assay [1] addresses T1, panel of 442 kinases (Homo sapiens, UniProt Q9BQI3).
T1 construct: purchased KINOMEscan
The source says: (§1) We assessed the selectivity of members of this scaffold using the KINOMEscan methodology across a near comprehensive panel of 442 kinases [[18,27]].

The target in assay [2] is T2, panel of 442 kinases (Homo sapiens, UniProt P04626).
T2 construct: purchased KINOMEscan
T2 sequence (P04626 23-1255): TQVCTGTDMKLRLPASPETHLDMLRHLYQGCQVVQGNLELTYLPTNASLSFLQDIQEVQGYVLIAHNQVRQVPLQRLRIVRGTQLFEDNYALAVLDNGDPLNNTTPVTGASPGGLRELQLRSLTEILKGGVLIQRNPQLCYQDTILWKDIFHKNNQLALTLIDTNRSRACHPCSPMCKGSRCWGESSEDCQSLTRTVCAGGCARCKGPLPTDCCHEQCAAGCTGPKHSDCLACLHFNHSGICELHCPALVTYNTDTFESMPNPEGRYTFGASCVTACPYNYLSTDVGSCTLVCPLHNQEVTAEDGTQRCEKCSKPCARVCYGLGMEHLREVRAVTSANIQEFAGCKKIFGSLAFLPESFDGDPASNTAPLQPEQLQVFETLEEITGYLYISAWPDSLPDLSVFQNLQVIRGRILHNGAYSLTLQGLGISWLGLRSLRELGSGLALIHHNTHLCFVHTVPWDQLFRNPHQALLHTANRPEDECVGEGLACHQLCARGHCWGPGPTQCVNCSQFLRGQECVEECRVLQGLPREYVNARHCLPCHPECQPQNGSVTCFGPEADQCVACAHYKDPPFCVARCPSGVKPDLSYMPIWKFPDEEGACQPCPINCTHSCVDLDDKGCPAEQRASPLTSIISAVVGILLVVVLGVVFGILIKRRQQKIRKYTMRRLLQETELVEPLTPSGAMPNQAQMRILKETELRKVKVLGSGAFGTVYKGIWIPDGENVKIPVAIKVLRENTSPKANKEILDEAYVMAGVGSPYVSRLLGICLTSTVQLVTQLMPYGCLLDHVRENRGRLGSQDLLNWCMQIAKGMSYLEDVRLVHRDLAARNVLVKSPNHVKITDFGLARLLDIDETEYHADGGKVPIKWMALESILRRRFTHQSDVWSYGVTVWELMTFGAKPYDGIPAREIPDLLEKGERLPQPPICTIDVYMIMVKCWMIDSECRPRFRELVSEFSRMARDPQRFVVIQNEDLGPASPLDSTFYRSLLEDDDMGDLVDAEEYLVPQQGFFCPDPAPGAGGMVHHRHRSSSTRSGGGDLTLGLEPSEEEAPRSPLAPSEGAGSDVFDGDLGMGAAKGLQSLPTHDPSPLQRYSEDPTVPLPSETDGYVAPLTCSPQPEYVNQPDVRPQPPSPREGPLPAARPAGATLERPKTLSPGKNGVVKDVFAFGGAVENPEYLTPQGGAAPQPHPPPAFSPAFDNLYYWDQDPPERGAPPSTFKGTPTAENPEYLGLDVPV
Source text: as §1

For assay [3], the target named is T3, panel of 442 kinases (Homo sapiens, UniProt P00519).
T3 construct: purchased KINOMEscan
T3 sequence (P00519 whole entry): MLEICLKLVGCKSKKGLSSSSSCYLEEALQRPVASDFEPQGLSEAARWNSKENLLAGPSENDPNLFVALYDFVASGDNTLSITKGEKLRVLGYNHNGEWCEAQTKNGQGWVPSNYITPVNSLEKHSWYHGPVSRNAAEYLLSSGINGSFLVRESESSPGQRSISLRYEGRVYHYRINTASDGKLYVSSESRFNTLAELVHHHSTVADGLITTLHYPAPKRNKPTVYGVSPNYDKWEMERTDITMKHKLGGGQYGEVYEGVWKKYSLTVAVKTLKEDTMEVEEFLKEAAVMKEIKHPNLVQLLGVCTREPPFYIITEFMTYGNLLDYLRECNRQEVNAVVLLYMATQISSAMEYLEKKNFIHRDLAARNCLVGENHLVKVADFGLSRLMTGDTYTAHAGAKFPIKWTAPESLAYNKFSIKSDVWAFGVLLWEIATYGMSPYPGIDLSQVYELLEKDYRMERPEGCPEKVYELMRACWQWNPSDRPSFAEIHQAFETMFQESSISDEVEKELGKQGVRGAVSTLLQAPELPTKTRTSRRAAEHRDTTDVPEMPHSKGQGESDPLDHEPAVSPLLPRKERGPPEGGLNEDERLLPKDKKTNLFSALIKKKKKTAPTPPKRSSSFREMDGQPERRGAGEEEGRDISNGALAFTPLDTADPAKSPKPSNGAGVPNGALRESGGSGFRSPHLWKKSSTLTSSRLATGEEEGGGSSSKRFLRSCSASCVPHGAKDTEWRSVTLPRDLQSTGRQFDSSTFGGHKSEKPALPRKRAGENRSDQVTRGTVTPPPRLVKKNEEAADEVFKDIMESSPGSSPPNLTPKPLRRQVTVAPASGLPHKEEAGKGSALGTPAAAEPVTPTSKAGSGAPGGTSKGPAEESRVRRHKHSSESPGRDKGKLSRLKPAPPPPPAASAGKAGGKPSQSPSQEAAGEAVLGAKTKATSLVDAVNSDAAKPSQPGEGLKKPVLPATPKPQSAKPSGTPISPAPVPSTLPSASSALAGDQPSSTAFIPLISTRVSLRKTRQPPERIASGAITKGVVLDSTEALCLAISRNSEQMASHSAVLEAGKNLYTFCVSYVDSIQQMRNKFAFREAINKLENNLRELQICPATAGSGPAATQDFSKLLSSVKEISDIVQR
Source text: as §1

In assay [4] the target is T4, panel of 442 kinases (Homo sapiens, UniProt Q00536).
T4 construct: purchased KINOMEscan
T4 sequence (Q00536 whole entry): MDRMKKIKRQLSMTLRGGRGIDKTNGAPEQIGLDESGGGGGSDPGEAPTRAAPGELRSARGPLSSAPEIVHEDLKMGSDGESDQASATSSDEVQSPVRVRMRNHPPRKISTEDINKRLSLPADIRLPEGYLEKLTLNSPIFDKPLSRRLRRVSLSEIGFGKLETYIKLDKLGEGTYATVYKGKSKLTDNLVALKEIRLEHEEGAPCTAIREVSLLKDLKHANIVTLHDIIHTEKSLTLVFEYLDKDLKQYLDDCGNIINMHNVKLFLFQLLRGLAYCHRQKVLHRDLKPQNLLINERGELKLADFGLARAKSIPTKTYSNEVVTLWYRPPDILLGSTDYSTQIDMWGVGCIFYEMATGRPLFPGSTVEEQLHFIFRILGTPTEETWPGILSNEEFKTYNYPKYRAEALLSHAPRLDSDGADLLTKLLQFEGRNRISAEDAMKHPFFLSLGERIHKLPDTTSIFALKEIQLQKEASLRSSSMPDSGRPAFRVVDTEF
Source text: as §1

T1 sequence (Q9BQI3 whole entry): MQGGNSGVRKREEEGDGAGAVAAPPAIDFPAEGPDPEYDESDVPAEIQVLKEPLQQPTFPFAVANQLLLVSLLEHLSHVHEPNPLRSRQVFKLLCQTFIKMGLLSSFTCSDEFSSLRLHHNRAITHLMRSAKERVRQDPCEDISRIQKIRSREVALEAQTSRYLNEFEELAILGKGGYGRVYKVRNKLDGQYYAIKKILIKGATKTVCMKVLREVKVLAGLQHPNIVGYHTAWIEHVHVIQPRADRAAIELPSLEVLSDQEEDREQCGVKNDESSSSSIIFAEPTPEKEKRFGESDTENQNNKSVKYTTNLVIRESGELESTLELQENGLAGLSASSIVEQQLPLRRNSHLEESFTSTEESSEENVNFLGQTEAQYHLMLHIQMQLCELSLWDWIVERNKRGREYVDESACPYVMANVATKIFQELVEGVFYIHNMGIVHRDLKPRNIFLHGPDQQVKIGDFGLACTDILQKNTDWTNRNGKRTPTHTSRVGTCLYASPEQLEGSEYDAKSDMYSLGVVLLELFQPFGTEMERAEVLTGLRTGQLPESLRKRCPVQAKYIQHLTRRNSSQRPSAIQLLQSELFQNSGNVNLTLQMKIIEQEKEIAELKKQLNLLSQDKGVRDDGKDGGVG

With `CCOc1cc(C(=O)N2CCC(N3CCN(C)CC3)CC2)ccc1Nc1ncc2c(n1)N(C1CCCC1)c1ccccc1C(=O)N2C` [Compound 26], on panel of 442 kinases [1], the “KINOMEscan: EIF2AK1” value came to 100. Also, the “KINOMEscan: ERBB2” value at panel of 442 kinases [2] stood at 100. Also, at panel of 442 kinases [3], the “KINOMEscan: ABL1-nonphosphorylated” value was found to be 96 and the “KINOMEscan: ABL1-phosphorylated” value is on record as 100. In addition, on panel of 442 kinases [4], the “KINOMEscan: PCTK1” value is given as 100.

In the case of `COc1cc(C(=O)N2CCC(N3CCN(C)CC3)CC2)ccc1Nc1ncc2c(n1)N1CCc3cccc(c31)C(=O)N2C` [Compound 24], at panel of 442 kinases [3], the “KINOMEscan: ABL1-nonphosphorylated” value came to 60 and the “KINOMEscan: ABL1-phosphorylated” value is reported as 81.

On to `COc1cc(C(=O)N2CCC(N3CCN(C)CC3)CC2)ccc1Nc1ncc2c(n1)N(C)c1ccccc1C(=O)N2C` [15 (LRRK2-IN-1)], for which, at panel of 442 kinases [1], the “KINOMEscan: EIF2AK1” value came to 100. Further, the “KINOMEscan: ERBB2” value on panel of 442 kinases [2] is given as 100. Besides, at panel of 442 kinases [3], the “KINOMEscan: ABL1-nonphosphorylated” value worked out at 100 and the “KINOMEscan: ABL1-phosphorylated” value was 82. The “KINOMEscan: PCTK1” value at panel of 442 kinases [4] is 96.

For `COc1cc(C(=O)N2CCC(N3CCN(C)CC3)CC2)ccc1Nc1ncc2c(n1)N(C1CCCC1)c1ccccc1C(=O)N2C` [Compound 25, 11-cyclopentyl-2-((2-methoxy-4-(4-(4-methylpiperazin-1-yl)piperidine-1-carbonyl)phenyl)amino)-5-methyl-5H-benzo[e]pyrimido[5,4-b][1,4]diazepin-6(11H)-one], the “KINOMEscan: EIF2AK1” value at panel of 442 kinases [1] turned out to be 100. In addition, the “KINOMEscan: ERBB2” value on panel of 442 kinases [2] is on record as 100. Also, at panel of 442 kinases [3], the “KINOMEscan: ABL1-nonphosphorylated” value was 90 and the “KINOMEscan: ABL1-phosphorylated” value is reported as 100. Also, the “KINOMEscan: PCTK1” value on panel of 442 kinases [4] is 100.

The record behind these values is article PMC3914206.
